#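 In this assay, cells in 96-well plates receive the compound at five concentrations for 48 hours. Endpoints are linearly interpolated between the surrounding concentrations. TGI: total growth inhibition.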
# How the values were obtained:
# Test in all cases: growth of human tumour cells (NCI), 48 h
# SK-OV-3 ovarian = system: SK-OV-3 ovarian
# HT29 colon = system: HT29 colon
# SNB-75 CNS = system: SNB-75 CNS
# UACC-257 melanoma = system: UACC-257 melanoma
# DU-145 prostate = system: DU-145 prostate
# MCF7 breast = system: MCF7 breast
# A549 NSCLC = system: A549 NSCLC
# OVCAR-8 ovarian = system: OVCAR-8 ovarian
# SN12C renal = system: SN12C renal
# HS 578T breast = system: HS 578T breast
# ACHN renal = system: ACHN renal
# SR leukemia = system: SR leukemia
# EKVX NSCLC = system: EKVX NSCLC
# A498 renal = system: A498 renal
# NCI-H23 lung = system: NCI-H23 lung
compound,measurement,setting,value
COP(=O)(OC)[C@@](O)(c1ccccc1)[C@@H](O)[C@@H](O)c1ccccc1,TGI,SK-OV-3 ovarian,> 100 µM
same,TGI,HT29 colon,> 100 µM
same,TGI,SNB-75 CNS,> 100 µM
same,TGI,UACC-257 melanoma,> 100 µM
same,TGI,DU-145 prostate,> 100 µM
same,TGI,MCF7 breast,83.8 µM
same,TGI,A549 NSCLC,> 100 µM
same,TGI,OVCAR-8 ovarian,> 100 µM
same,TGI,SN12C renal,> 100 µM
same,TGI,HS 578T breast,> 100 µM
same,TGI,ACHN renal,> 100 µM
same,TGI,SR leukemia,1.91 µM
same,TGI,EKVX NSCLC,> 100 µM
same,TGI,A498 renal,> 100 µM
same,TGI,NCI-H23 lung,> 100 µM
Cc1cc(NS(=O)(=O)c2ccc(NC(=O)c3ccc4nc5ccccc5c(Nc5ccc(S(N)(=O)=O)cc5)c4c3)cc2)no1,TGI,SK-OV-3 ovarian,> 100 µM
same,TGI,HT29 colon,72.2 µM
same,TGI,SNB-75 CNS,94.7 µM
same,TGI,UACC-257 melanoma,57.8 µM
same,TGI,DU-145 prostate,> 100 µM
same,TGI,MCF7 breast,37.1 µM
same,TGI,A549 NSCLC,66.3 µM
same,TGI,OVCAR-8 ovarian,66 µM
same,TGI,SN12C renal,81.5 µM
same,TGI,HS 578T breast,86.8 µM
same,TGI,ACHN renal,45.6 µM
same,TGI,SR leukemia,73.4 µM
same,TGI,EKVX NSCLC,63 µM
same,TGI,A498 renal,> 100 µM
same,TGI,NCI-H23 lung,95.2 µM
COc1cccc(-c2nc(N)c(C#N)c3c2CCS(=O)(=O)c2ccc(C)cc2-3)c1,TGI,SK-OV-3 ovarian,> 100 µM
same,TGI,HT29 colon,> 49.1 µM
same,TGI,SNB-75 CNS,54 µM
same,TGI,UACC-257 melanoma,> 100 µM
same,TGI,DU-145 prostate,> 100 µM
same,TGI,MCF7 breast,> 100 µM
same,TGI,A549 NSCLC,> 100 µM
same,TGI,OVCAR-8 ovarian,> 100 µM
same,TGI,SN12C renal,> 100 µM
same,TGI,HS 578T breast,48 µM
same,TGI,ACHN renal,> 100 µM
same,TGI,SR leukemia,5.14 µM
same,TGI,EKVX NSCLC,> 100 µM
same,TGI,A498 renal,> 81.8 µM
same,TGI,NCI-H23 lung,> 100 µM
CC(C)(C(=O)N(C(=O)N1CCN(c2ccccc2)CC1)S(=O)(=O)c1ccccc1)c1ccc(Cl)cc1,TGI,SK-OV-3 ovarian,> 100 µM
same,TGI,HT29 colon,> 100 µM
same,TGI,SNB-75 CNS,> 100 µM
same,TGI,UACC-257 melanoma,> 100 µM
same,TGI,DU-145 prostate,> 100 µM
same,TGI,MCF7 breast,> 100 µM
same,TGI,A549 NSCLC,> 100 µM
same,TGI,OVCAR-8 ovarian,> 100 µM
same,TGI,SN12C renal,> 100 µM
same,TGI,HS 578T breast,> 100 µM
same,TGI,ACHN renal,> 100 µM
same,TGI,SR leukemia,> 100 µM
same,TGI,EKVX NSCLC,63.1 µM
same,TGI,A498 renal,80.8 µM
same,TGI,NCI-H23 lung,> 100 µM
CCOC(=O)/C(=C\n1c(=O)sc2ccccc21)C(=O)c1ccccc1,TGI,SK-OV-3 ovarian,> 100 µM
same,TGI,HT29 colon,> 100 µM
same,TGI,SNB-75 CNS,> 100 µM
same,TGI,UACC-257 melanoma,> 100 µM
same,TGI,DU-145 prostate,> 100 µM
same,TGI,MCF7 breast,> 100 µM
same,TGI,A549 NSCLC,> 100 µM
same,TGI,OVCAR-8 ovarian,> 100 µM
same,TGI,SN12C renal,> 100 µM
same,TGI,HS 578T breast,> 100 µM
same,TGI,ACHN renal,> 100 µM
same,TGI,SR leukemia,> 100 µM
same,TGI,EKVX NSCLC,> 100 µM
same,TGI,A498 renal,> 100 µM
same,TGI,NCI-H23 lung,> 100 µM
CCCCCCCCCCCCCCCCNc1nc(=O)n(C2CC(O)C(COP(=O)(O)OC3CC(n4cc(F)c(=O)[nH]c4=O)OC3CO)O2)cc1F (stereo not given),TGI,SK-OV-3 ovarian,> 100 µM
same,TGI,HT29 colon,26.5 µM
same,TGI,SNB-75 CNS,> 68.8 µM
same,TGI,UACC-257 melanoma,> 59 µM
same,TGI,DU-145 prostate,> 70.6 µM
same,TGI,MCF7 breast,97.1 µM
same,TGI,A549 NSCLC,26.4 µM
same,TGI,OVCAR-8 ovarian,44.2 µM
same,TGI,SN12C renal,> 100 µM
same,TGI,HS 578T breast,> 100 µM
same,TGI,ACHN renal,> 100 µM
same,TGI,SR leukemia,13.1 µM
same,TGI,EKVX NSCLC,99.3 µM
same,TGI,A498 renal,> 89.6 µM
same,TGI,NCI-H23 lung,19.4 µM
CC1=NN(c2ccccc2Cl)C2(C1)C(Cl)C(=O)N2c1nc2ccccc2s1 (stereo not given),TGI,SK-OV-3 ovarian,> 100 µM
same,TGI,HT29 colon,> 100 µM
same,TGI,SNB-75 CNS,89.9 µM
same,TGI,UACC-257 melanoma,> 100 µM
same,TGI,DU-145 prostate,> 100 µM
same,TGI,MCF7 breast,> 100 µM
same,TGI,A549 NSCLC,> 100 µM
same,TGI,OVCAR-8 ovarian,> 100 µM
same,TGI,SN12C renal,> 100 µM
same,TGI,HS 578T breast,> 100 µM
same,TGI,ACHN renal,> 100 µM
same,TGI,SR leukemia,49.6 µM
same,TGI,EKVX NSCLC,> 100 µM
same,TGI,A498 renal,> 100 µM
same,TGI,NCI-H23 lung,> 100 µM
CC(Oc1ccc(Cl)cc1Cl)C(=O)NN1C(=O)CC(=O)NC1=S (stereo not given),TGI,SK-OV-3 ovarian,> 100 µM
same,TGI,HT29 colon,> 100 µM
same,TGI,SNB-75 CNS,> 100 µM
same,TGI,UACC-257 melanoma,> 100 µM
same,TGI,DU-145 prostate,> 100 µM
same,TGI,MCF7 breast,> 100 µM
same,TGI,A549 NSCLC,> 100 µM
same,TGI,OVCAR-8 ovarian,> 100 µM
same,TGI,SN12C renal,> 100 µM
same,TGI,HS 578T breast,> 100 µM
same,TGI,ACHN renal,> 100 µM
same,TGI,SR leukemia,> 100 µM
same,TGI,EKVX NSCLC,> 100 µM
same,TGI,A498 renal,> 100 µM
same,TGI,NCI-H23 lung,> 100 µM
CC1(c2cccc(C(F)(F)F)c2)CC(c2cccc(C(F)(F)F)c2)=C(C#N)C(=C(C#N)C#N)N1 (stereo not given),TGI,SK-OV-3 ovarian,29.6 µM
same,TGI,HT29 colon,36.2 µM
same,TGI,SNB-75 CNS,33.6 µM
same,TGI,UACC-257 melanoma,31.7 µM
same,TGI,DU-145 prostate,31 µM
same,TGI,MCF7 breast,34.9 µM
same,TGI,A549 NSCLC,39.9 µM
same,TGI,OVCAR-8 ovarian,40.2 µM
same,TGI,SN12C renal,32.8 µM
same,TGI,HS 578T breast,43.2 µM
same,TGI,ACHN renal,31 µM
same,TGI,SR leukemia,30 µM
same,TGI,EKVX NSCLC,34 µM
same,TGI,A498 renal,32.7 µM
same,TGI,NCI-H23 lung,38.2 µM
CCc1n[nH]c(=O)n1N,TGI,SK-OV-3 ovarian,> 100 µM
same,TGI,HT29 colon,> 100 µM
same,TGI,SNB-75 CNS,> 100 µM
same,TGI,UACC-257 melanoma,> 100 µM
same,TGI,DU-145 prostate,> 100 µM
same,TGI,MCF7 breast,> 100 µM
same,TGI,A549 NSCLC,> 100 µM
same,TGI,OVCAR-8 ovarian,> 100 µM
same,TGI,SN12C renal,> 100 µM
same,TGI,HS 578T breast,> 100 µM
same,TGI,ACHN renal,> 100 µM
same,TGI,SR leukemia,> 100 µM
same,TGI,EKVX NSCLC,> 100 µM
same,TGI,A498 renal,> 100 µM
same,TGI,NCI-H23 lung,> 100 µM
O=C1NCC2(CCN(CC3COc4ccccc4O3)CC2)N1c1ccccc1 (stereo not given),TGI,SK-OV-3 ovarian,> 100 µM
same,TGI,HT29 colon,> 100 µM
same,TGI,SNB-75 CNS,> 100 µM
same,TGI,UACC-257 melanoma,> 100 µM
same,TGI,DU-145 prostate,> 100 µM
same,TGI,MCF7 breast,> 100 µM
same,TGI,A549 NSCLC,> 100 µM
same,TGI,OVCAR-8 ovarian,> 100 µM
same,TGI,SN12C renal,> 100 µM
same,TGI,HS 578T breast,> 100 µM
same,TGI,ACHN renal,> 100 µM
same,TGI,SR leukemia,> 100 µM
same,TGI,EKVX NSCLC,> 100 µM
same,TGI,A498 renal,> 100 µM
same,TGI,NCI-H23 lung,> 100 µM
NC(N)=N/N=C/c1c(Cl)nc2n1CCS2,TGI,SK-OV-3 ovarian,> 100 µM
same,TGI,HT29 colon,> 100 µM
same,TGI,SNB-75 CNS,> 100 µM
same,TGI,UACC-257 melanoma,> 100 µM
same,TGI,DU-145 prostate,> 100 µM
same,TGI,MCF7 breast,> 100 µM
same,TGI,A549 NSCLC,> 100 µM
same,TGI,OVCAR-8 ovarian,> 100 µM
same,TGI,SN12C renal,> 100 µM
same,TGI,HS 578T breast,> 100 µM
same,TGI,ACHN renal,> 100 µM
same,TGI,SR leukemia,> 100 µM
same,TGI,EKVX NSCLC,> 100 µM
same,TGI,A498 renal,> 100 µM
same,TGI,NCI-H23 lung,> 100 µM
c1ccc(CSCCC(SCc2ccccc2)SCc2ccccc2)cc1,TGI,SK-OV-3 ovarian,> 10 µM
same,TGI,HT29 colon,> 10 µM
same,TGI,SNB-75 CNS,> 10 µM
same,TGI,UACC-257 melanoma,> 10 µM
same,TGI,DU-145 prostate,> 10 µM
same,TGI,MCF7 breast,> 10 µM
same,TGI,A549 NSCLC,> 10 µM
same,TGI,OVCAR-8 ovarian,> 10 µM
same,TGI,SN12C renal,> 10 µM
same,TGI,HS 578T breast,> 10 µM
same,TGI,ACHN renal,> 10 µM
same,TGI,SR leukemia,> 10 µM
same,TGI,EKVX NSCLC,> 10 µM
same,TGI,A498 renal,> 10 µM
same,TGI,NCI-H23 lung,> 10 µM

# — PubChem BioAssay (NCI)
